Test results as given in publication PMC9109600 (ACS chemical biology, 2021).

Biological target: T1, Guanine deaminase (GDA) (Homo sapiens, UniProt Q9Y2T3)
T1 sequence (Q9Y2T3 1-454): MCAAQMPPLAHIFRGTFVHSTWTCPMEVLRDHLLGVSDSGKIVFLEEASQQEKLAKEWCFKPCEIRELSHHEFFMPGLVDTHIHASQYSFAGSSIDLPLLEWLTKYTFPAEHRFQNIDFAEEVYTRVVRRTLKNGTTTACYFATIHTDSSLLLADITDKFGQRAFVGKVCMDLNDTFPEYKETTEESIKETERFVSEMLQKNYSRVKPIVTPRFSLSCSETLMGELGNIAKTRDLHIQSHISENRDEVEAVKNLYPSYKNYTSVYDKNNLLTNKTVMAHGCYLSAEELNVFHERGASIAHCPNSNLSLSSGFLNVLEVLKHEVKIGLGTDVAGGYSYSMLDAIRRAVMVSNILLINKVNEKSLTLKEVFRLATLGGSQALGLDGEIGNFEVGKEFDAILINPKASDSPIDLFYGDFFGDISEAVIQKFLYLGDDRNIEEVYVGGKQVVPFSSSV
Assay: real-time fluorescence inhibition assay with tzGN as substrate
Format: biochemical

SMILES	IC50
NC(=O)c1[nH]cnc1N [AICA, 5-aminoimidazole-4-carboxamide]	100 µM
NC(=O)c1nscc1N [ATCA, 4-aminoisothiazole-3-carboxamide]	80 µM
O=C(O)c1c[nH]cn1 [ICA, 4-imidazolecarboxylic acid]	2000 µM
